Consider eleven molecules from patent US9549556B2, “Macrocyclic picolinamides as fungicides” (DOW AGROSCIENCES LLC, priority 2013, dated 2017).

One data set deals with Puccinia triticina. Briefly: Wheat brown rust (PUCCRT) disease control on wheat seedlings. The class given is in vivo. To be noted: read-out: PUCCRT disease control rating (% Control); for pest or weed control at 121.5 g/ha: 121.5 g/H, low volume (track spray) application; for pest or weed control at 100 ppm: high volume application.
The test system of another data set is Septoria tritici. Nature of the data set: Leaf blotch of wheat (SEPTTR) disease control on wheat seedlings. The class given is in vivo, Mycosphaerella graminicola (anamorph Septoria tritici). To be noted: Zymoseptoria tritici, read-out: SEPTTR disease control rating (% Control); for pest or weed control at 121.5 g/ha: 121.5 g/H, low volume (track spray) application; for pest or weed control at 100 ppm: high volume application. The method, then:
Evaluation of Fungicidal Activity: Leaf Blotch of Wheat (Mycosphaerella graminicola; Anamorph: Septoria tritici; Bayer Code […]) Technical grades of materials were dissolved in acetone, which were then mixed with nine volumes of water containing 110 ppm Triton X-100. The fungicide solutions were applied onto wheat seedlings using an automated booth sprayer to run-off. All sprayed plants were allowed to air dry prior to further handling. All fungicides were evaluated using the aforementioned method for their activity vs. all target diseases. Wheat leaf blotch and brown rust activity were also evaluated using track spray applications, in which case the fungicides were formulated as EC formulations, containing 0.1% Trycol 5941 in the spray solutions. Wheat plants (variety Yuma) were grown from seed in a greenhouse in 50% mineral soil/50% soil-less Metro mix until the first leaf was fully emerged, with 7-10 seedlings per pot. These plants were inoculated with an aqueous spore suspension of Septoria tritici either prior to or after fungicide treatments. After inoculation the plants were kept in 100% relative humidity (one day in a dark dew chamber followed by two to three days in a lighted dew chamber at 20° C.) to permit spores to germinate and infect the leaf. The plants were then transferred to a greenhouse set at 20° C. for disease to develop. When disease symptoms were fully expressed on the 1st leaves of untreated plants, infection levels were assessed on a scale of 0 to 100 percent disease severity. Percent disease control was calculated using the ratio of disease severity on treated plants relative to untreated plants.

Read-outs that look alike come from different tables or passages of the source.

One may read the melting point as the temperature, or range, at which the solid turns liquid. Molecule `CC(C)CC[C@H]1[C@H](C)OC(=O)[C@@H](NC(=O)OC(C)(C)C)COC[C@@H]1O` [Compound 66, tert-butyl ((3S,7R,8R,9S)-7-hydroxy-8-isopentyl-9-methyl-2-oxo-1,5-dioxonan-3-yl)carbamate] registered a melting point of 112 to 115 °C.

Consider `COc1ccnc(C(=O)N[C@H]2COC[C@H](OC(=O)C3CC3)[C@@H](CCC(C)C)[C@H](C)OC2=O)c1OC(C)=O` [Compound 68, (3S,7R,8S,9S)-3-(3-acetoxy-4-methoxypicolinamido)-8-isopentyl-9-methyl-2-oxo-1,5-dioxonan-7-yl cyclopropanecarboxylate], for which the pest or weed control at 121.5 g/ha with Puccinia triticina (24 h, 1DP (1 Day Protectant)) is more than 70%; in the data set with Puccinia triticina (72 h, 3DC (3 Day Curative)) it was more than 70%; in the data set with Septoria tritici (24 h, 1DP (1 Day Protectant)), less than 70%; with Septoria tritici (72 h, 3DC (3 Day Curative)), more than 70%.

Turning to `COc1ccnc(C(=O)N[C@H]2COC[C@H](OCC3CC3)[C@@H](Cc3ccc(F)cc3)[C@H](C)OC2=O)c1OCOC(C)=O` [Compound 71], the pest or weed control at 121.5 g/ha in the data set on Puccinia triticina (24 h, 1DP (1 Day Protectant)) was more than 70%; with Puccinia triticina (72 h, 3DC (3 Day Curative)), more than 70%; in the data set with Septoria tritici (24 h, 1DP (1 Day Protectant)) it was more than 70%; in the data set on Septoria tritici (72 h, 3DC (3 Day Curative)), more than 70%.

`COc1ccnc(C(=O)N[C@H]2COC[C@H](OCOCc3ccccc3)[C@@H](Cc3ccccc3)[C@H](C)OC2=O)c1O` [Compound 72, N-((3S,7R,8S,9S)-8-benzyl-7-((benzyloxy)methoxy)-9-methyl-2-oxo-1,5-dioxonan-3-yl)-3-hydroxy-4-methoxypicolinamide]: the pest or weed control at 100 ppm with Puccinia triticina (24 h, 1DP (1 Day Protectant)) is more than 70%; in the data set on Puccinia triticina (72 h, 3DC (3 Day Curative)), less than 70%; in the data set with Septoria tritici (24 h, 1DP (1 Day Protectant)), less than 70%; in the data set on Septoria tritici (72 h, 3DC (3 Day Curative)), less than 70%.

As for `COCCC(=O)Oc1c(OC)ccnc1C(=O)N[C@H]1COC[C@H](Oc2ccccc2)[C@@H](Cc2ccccc2)[C@H](C)OC1=O` [Compound 73], the pest or weed control at 121.5 g/ha is more than 70% with Puccinia triticina (24 h, 1DP (1 Day Protectant)); more than 70% in the data set with Puccinia triticina (72 h, 3DC (3 Day Curative)); more than 70% in the data set with Septoria tritici (24 h, 1DP (1 Day Protectant)); more than 70% with Septoria tritici (72 h, 3DC (3 Day Curative)).

`COc1ccnc(C(=O)N[C@H]2COC[C@H](Oc3ccccc3)[C@@H](Cc3ccccc3)[C@H](C)OC2=O)c1O` [Compound 77] had a melting point of 49 to 54 °C.

On to `COc1ccnc(C(=O)N[C@H]2COC[C@H](OCC3CC3)[C@@H](Cc3ccccc3)[C@H](C)OC2=O)c1OCOC(C)=O` [Compound 80], for which the pest or weed control at 100 ppm in the data set on Puccinia triticina (24 h, 1DP (1 Day Protectant)) is more than 70%; with Puccinia triticina (72 h, 3DC (3 Day Curative)), more than 70%; in the data set with Septoria tritici (24 h, 1DP (1 Day Protectant)), more than 70%; in the data set with Septoria tritici (72 h, 3DC (3 Day Curative)) it was more than 70%. The pest or weed control at 121.5 g/ha in the data set with Puccinia triticina (24 h, 1DP (1 Day Protectant)) was more than 70%; with Puccinia triticina (72 h, 3DC (3 Day Curative)), more than 70%; with Septoria tritici (24 h, 1DP (1 Day Protectant)), more than 70%; in the data set with Septoria tritici (72 h, 3DC (3 Day Curative)) it was more than 70%.

Consider `COc1ccnc(C(=O)N[C@H]2COC[C@H](Oc3ccccc3)[C@@H](Cc3ccccc3)[C@H](C)OC2=O)c1OC(C)=O` [Compound 81], for which the pest or weed control at 121.5 g/ha was more than 70% with Puccinia triticina (24 h, 1DP (1 Day Protectant)); more than 70% with Puccinia triticina (72 h, 3DC (3 Day Curative)); more than 70% with Septoria tritici (24 h, 1DP (1 Day Protectant)); more than 70% in the data set on Septoria tritici (72 h, 3DC (3 Day Curative)).

On to `COc1ccnc(C(=O)N[C@H]2COC[C@H](OCC3CC3)[C@@H](Cc3ccccc3)[C@H](C)OC2=O)c1O` [Compound 83], for which the pest or weed control at 100 ppm is more than 70% in the data set with Puccinia triticina (24 h, 1DP (1 Day Protectant)); more than 70% in the data set on Puccinia triticina (72 h, 3DC (3 Day Curative)); more than 70% with Septoria tritici (24 h, 1DP (1 Day Protectant)); more than 70% in the data set on Septoria tritici (72 h, 3DC (3 Day Curative)).

On to `COc1ccnc(C(=O)N[C@H]2COC[C@H](Oc3ccccc3)[C@@H](Cc3ccccc3)[C@H](C)OC2=O)c1OCOC(C)=O` [Compound 84], for which the pest or weed control at 121.5 g/ha was more than 70% with Puccinia triticina (24 h, 1DP (1 Day Protectant)); more than 70% with Puccinia triticina (72 h, 3DC (3 Day Curative)); more than 70% in the data set with Septoria tritici (24 h, 1DP (1 Day Protectant)); more than 70% in the data set on Septoria tritici (72 h, 3DC (3 Day Curative)).

For the molecule `COc1ccnc(C(=O)N[C@H]2COC[C@H](OCC(C)C)[C@@H](Cc3ccccc3)[C@H](C)OC2=O)c1OCOC(C)=O` [Compound 85], the pest or weed control at 100 ppm in the data set with Puccinia triticina (24 h, 1DP (1 Day Protectant)) is more than 70%; in the data set on Puccinia triticina (72 h, 3DC (3 Day Curative)) it was more than 70%; with Septoria tritici (24 h, 1DP (1 Day Protectant)), less than 70%; in the data set on Septoria tritici (72 h, 3DC (3 Day Curative)) it was more than 70%. In addition, the pest or weed control at 121.5 g/ha in the data set on Puccinia triticina (24 h, 1DP (1 Day Protectant)) was more than 70%; in the data set with Puccinia triticina (72 h, 3DC (3 Day Curative)) it was more than 70%; with Septoria tritici (24 h, 1DP (1 Day Protectant)) it was more than 70%; in the data set on Septoria tritici (72 h, 3DC (3 Day Curative)), more than 70%.
